The results in this text go back to patent US11453673B2, “Substituted [1,2,4]triazolo[4,3-a]pyrazines as phosphodiesterase inhibitors” (Eli Lilly and Company, priority 2018, dated 2022).

What all share (assay type): biochemical
The target of assay [1] is human PDE3A (catalytic domain) (Homo sapiens (Human), UniProt Q14432). Description: PDE enzyme assay using [3H]cAMP as substrate (SPA). Conditions: [3H]cAMP 47 nM. The source says: (§1) The nucleotide sequences encoding full-length human PDE1A (NP_001003683.1) and PDE1C (NP_005011.1) are inserted into pFastBac1 (Invitrogen) vector with an N-terminal HIS tag. The nucleotide sequences encoding full-length human PDE4D (NP_006194.2) and catalytic domain (residue 641-1141) of PDE3A (NP_000912.3) are inserted into pFastBac1 (Invitrogen) vector with a C-terminal HIS tag. The nucleotide sequences encoding full-length human PDE6A (NP_000431.2) and PDE6B (AAH00249.1) are inserted into pFastBacDual (Invitrogen) vector with an N-terminal HIS tag and N-terminal Flag tag, respectively, for production of PDE6A/6B dimer. Baculovirus generation and protein expression in Sf9 cells are carried out according to the protocol of Bac-to-Bac Baculovirus Expression system (Invitrogen). The nucleotide sequence encoding full-length human PDE1B (NP_000915.1) is inserted into pIEX4 (Novagen) with a C-terminal HIS tag, and both protein productions in Sf9 cells are carried out according to the vendor's protocol (Novagen). The His tagged PDE proteins are purified using Ni-NTA agarose (Qiagen) followed by size exclusion chromatography on a SUPERDEX© 200 column (GE Healthcare) in storage buffer (20 mM Tris-HCl, pH 7.5, 150 mM NaCl, 10% Glycerol). The Flag tagged PDE proteins including PDE6A/6B are purified using anti-Flag M2-agarose (Sigma), after purification through NiNTA column chromatography and eluted in storage buffer (50 mM Tris-HCl, pH 7.5, 150 mM NaCl, 10% Glycerol, 0.1 mg/ml Flag peptide). All purified proteins are stored at −80° C. in small aliquots.
(§2) All 3′, 5′ cyclic nucleotide PDE enzyme activities are measured with a radiometric enzyme assay based on SPA detection system. Compounds to be tested are diluted in pure DMSO using ten point concentration response curves. Maximal compound concentration in the reaction mixture is either 10 or 100 μM. Compounds at the appropriate concentration are pre-incubated with either of the PDE enzymes for 30 minutes before the reaction is started by the addition of substrate. Reactions are allowed to proceed for 60 minutes at room temperature. Next, reactions are stopped by addition of SPA beads. Samples are read 12 hours later in a MICROBETA™ TRILUX© Counter. IC50 values are calculated by plotting the normalized data vs. log [compound] and fitting the data using a four parameter logistic equation.
(§3) The following PDE activities are measured using [3H]cAMP as reaction substrate: human PDE3A (catalytic domain) and human PDE4D. Both enzymes are cloned and purified following standard procedures. The assay buffer is prepared to give a final concentration in the assay of 50 mM Tris-HCl, 8.3 mM MgCl2, 1.7 mM EDTA and 0.1% BSA at pH 7.5. Final enzyme concentrations are 0.008 and 0.021 nM for PDE3A and PDE4D, respectively. Reactions are started by addition of the substrate, [3H]cAMP, to give a final concentration of 47 nM.

For another assay, the target named is human PDE4D (Homo sapiens (Human), UniProt Q08499). Description: PDE enzyme assay using [3H]cAMP as substrate (SPA). Conditions: Mean ± standard deviation; [3H]cAMP 47 nM.
Description: as §1, §2, §3

Another assay concerns the target human PDE6A/6B (Homo sapiens (Human), UniProt P16499+P35913). Description: PDE enzyme assay using [3H]cGMP as substrate (SPA). The settings on record: [3H]cGMP 80 nM; read-out: PDE6AB IC50.
Description: as §1, §2
The following phosphodiesterase activities are measured using [3H]cGMP as reaction substrate: human PDE6A/6B. The catalytic active form of human PDE6 is a dimer composed of an a (human PDE6A) and […] (human PDE6B). The dimer of human PDE6A/6B is produced by the coexpression and purification strategy, using two purification steps, i.e., NiNTA and anti-FLAG Sepharose chromatography. The assay buffer is prepared to give a final concentration in the assay of 50 mM Tris-HCl, 8.3 mM MgCl2, 1.7 mM EDTA and 0.1% BSA at pH 7.5. The final enzyme concentration is 5 nM. The reactions are started by addition of the substrate, [3H]cGMP, to give a final concentration of 80 nM.

The target in another assay is human PDE1C (Homo sapiens (Human), UniProt Q14123). Description: Ca2+-calmodulin dependent PDE enzyme assay (radiometric SPA, [3H]cAMP). The settings on record: Mean ± standard deviation; [3H]cAMP 47 nM; read-out: PDE 1C IC50.
Description: as §1, §2
(§4) PDE1B, PDE1A, and PDE1C are cloned and purified following standard protein generation procedures. […] The final enzyme concentration is 0.25, 0.074 and 0.0012 nM, for PDE1A, PDE1B and PDE1C respectively. The reactions are started by addition of the substrate, [^3H]cAMP, to give a final concentration of 47 nM.

The target in the next assay is human PDE1A (Homo sapiens (Human), UniProt P54750). Described as above. The settings on record: Mean ± standard deviation; [3H]cAMP 47 nM; read-out: PDE 1A IC50.
Description: as §1, §2, §4

The target of another assay is human PDE1B (Homo sapiens (Human), UniProt Q01064). The description is as above. Conditions: Mean ± standard deviation; [3H]cAMP 47 nM; read-out: PDE 1B IC50.
Description: as §1, §2, §4

SMILES strings stand for the structures.

human PDE6A/6B, sequence (P16499 whole entry): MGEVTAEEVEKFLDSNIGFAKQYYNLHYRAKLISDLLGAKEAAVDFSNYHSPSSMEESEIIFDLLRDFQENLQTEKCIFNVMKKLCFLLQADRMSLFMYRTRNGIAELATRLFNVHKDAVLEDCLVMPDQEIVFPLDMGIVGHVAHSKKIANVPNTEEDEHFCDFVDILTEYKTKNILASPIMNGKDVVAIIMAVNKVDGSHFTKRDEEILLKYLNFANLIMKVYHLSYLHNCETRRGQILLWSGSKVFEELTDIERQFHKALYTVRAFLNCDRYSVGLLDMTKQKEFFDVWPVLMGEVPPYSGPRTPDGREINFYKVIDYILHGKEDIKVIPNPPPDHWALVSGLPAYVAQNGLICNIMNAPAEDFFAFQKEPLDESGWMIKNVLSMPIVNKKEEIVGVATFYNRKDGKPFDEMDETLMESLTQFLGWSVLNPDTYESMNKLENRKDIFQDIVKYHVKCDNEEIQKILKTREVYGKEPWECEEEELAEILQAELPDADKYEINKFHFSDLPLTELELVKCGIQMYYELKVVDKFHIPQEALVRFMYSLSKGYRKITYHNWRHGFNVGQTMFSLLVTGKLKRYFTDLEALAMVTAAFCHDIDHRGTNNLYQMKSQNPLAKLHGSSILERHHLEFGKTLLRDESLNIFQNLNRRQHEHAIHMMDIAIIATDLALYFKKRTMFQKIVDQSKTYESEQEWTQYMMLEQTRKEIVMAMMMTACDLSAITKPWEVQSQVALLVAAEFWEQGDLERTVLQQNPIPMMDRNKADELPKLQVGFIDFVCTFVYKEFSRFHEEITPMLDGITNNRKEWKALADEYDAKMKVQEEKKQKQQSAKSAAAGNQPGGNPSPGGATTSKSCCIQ
human PDE6A/6B, sequence (P35913 whole entry): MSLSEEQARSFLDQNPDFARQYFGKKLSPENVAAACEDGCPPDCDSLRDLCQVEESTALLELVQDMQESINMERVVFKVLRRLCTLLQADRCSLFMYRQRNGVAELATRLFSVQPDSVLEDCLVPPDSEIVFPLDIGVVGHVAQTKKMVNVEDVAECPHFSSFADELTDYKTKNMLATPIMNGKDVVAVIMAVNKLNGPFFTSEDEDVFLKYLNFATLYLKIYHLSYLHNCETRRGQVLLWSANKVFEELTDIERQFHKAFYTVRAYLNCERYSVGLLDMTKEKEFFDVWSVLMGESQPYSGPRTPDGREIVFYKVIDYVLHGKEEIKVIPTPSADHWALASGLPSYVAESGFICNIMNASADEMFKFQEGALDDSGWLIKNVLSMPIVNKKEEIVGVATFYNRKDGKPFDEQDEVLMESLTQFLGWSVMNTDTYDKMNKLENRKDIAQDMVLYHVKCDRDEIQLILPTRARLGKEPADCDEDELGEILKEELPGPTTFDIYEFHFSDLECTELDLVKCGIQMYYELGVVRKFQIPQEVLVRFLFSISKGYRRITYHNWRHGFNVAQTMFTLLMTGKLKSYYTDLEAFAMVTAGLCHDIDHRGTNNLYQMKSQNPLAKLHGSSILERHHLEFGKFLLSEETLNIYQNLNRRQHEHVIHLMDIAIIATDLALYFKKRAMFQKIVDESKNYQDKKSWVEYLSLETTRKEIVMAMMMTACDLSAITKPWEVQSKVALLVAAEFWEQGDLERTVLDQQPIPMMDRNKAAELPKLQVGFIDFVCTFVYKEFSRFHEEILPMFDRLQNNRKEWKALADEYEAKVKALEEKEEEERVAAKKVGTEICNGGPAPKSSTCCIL
human PDE3A (catalytic domain), sequence (Q14432 641-1141): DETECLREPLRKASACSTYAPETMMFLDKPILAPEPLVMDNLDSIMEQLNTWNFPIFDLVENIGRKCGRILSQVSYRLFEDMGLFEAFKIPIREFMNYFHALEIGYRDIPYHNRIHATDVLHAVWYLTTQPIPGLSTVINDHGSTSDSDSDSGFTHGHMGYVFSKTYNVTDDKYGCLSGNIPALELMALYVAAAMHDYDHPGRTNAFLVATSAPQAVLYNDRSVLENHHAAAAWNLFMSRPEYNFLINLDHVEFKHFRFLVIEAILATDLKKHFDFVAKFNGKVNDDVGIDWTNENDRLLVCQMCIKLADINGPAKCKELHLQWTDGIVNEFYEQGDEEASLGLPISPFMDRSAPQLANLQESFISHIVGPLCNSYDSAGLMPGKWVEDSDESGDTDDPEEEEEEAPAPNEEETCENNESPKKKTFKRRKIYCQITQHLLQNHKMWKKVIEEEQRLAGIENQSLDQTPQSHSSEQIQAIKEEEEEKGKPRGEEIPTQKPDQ
human PDE4D, sequence (Q08499 other isoform, or with tags, fused parts or gaps): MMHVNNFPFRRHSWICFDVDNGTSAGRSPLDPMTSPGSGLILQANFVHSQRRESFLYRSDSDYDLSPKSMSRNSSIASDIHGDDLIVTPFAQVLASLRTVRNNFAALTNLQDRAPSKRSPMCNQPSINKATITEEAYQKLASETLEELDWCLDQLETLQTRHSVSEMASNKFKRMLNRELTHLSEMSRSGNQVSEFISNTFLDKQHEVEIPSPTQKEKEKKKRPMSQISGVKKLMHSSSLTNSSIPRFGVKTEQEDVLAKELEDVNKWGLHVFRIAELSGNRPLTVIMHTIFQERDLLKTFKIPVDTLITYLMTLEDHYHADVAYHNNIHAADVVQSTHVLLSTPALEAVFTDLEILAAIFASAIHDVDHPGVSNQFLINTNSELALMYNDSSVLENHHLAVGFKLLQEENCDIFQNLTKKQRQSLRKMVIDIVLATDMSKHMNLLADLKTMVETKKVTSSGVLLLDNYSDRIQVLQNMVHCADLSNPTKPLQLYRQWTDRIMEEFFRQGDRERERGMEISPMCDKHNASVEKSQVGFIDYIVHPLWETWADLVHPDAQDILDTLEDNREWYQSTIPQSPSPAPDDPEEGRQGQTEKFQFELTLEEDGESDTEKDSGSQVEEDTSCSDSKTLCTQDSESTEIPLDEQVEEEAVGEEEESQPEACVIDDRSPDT

Turning to `Cc1c(C)n2c(C3(C4CC4)CC3)nnc2c(=O)n1CC1CCCCO1` (single isomer, unassigned) [Example 9, 3-(1-Cyclopropylcyclopropyl)-5,6-dimethyl-7-(tetrahydropyran-2-ylmethyl)-[1,2,4]triazolo[4,3-a]pyrazin-8-one], the IC50 in assay [1] was greater than 100 µM; against human PDE4D, 33.1 µM; on human PDE6A/6B, greater than 10 µM; on human PDE1C, 0.000958 ± 0.000487 µM.
As for `Cc1c(C)n2c(C3(C4CC4)CC3)nnc2c(=O)n1CC1CC1` [Example 2, 3-(1-Cyclopropylcyclopropyl)-7-(cyclopropylmethyl)-5,6-dimethyl-[1,2,4]triazolo[4,3-a]pyrazin-8-one], the IC50 in assay [1] is greater than 100 µM; on human PDE4D, 23.8 ± 0.8 µM; at human PDE6A/6B it was greater than 10 µM; at human PDE1A, 0.00373 ± 0.00202 µM; at human PDE1B, 0.00411 ± 0.0011 µM; on human PDE1C, 0.00281 ± 0.00088 µM.
For `Cc1c(C)n2c(C3(C)CC3)nnc2c(=O)n1CC1CCCCO1` (single isomer, unassigned) [Example 13, 5,6-Dimethyl-3-(1-methylcyclopropyl)-7-(tetrahydropyran-2-ylmethyl)-[1,2,4]triazolo[4,3-a]pyrazin-8-one], the values for the IC50 (in assay [1]; against human PDE4D; on human PDE6A/6B) were greater than 100 µM, greater than 100 µM and greater than 10 µM, respectively.
Take `Cc1c(C)n2c(C3(C)CC3)nnc2c(=O)n1CC1CCCCO1` (racemic) [Example 8, 5,6-Dimethyl-3-(1-methylcyclopropyl)-7-(tetrahydropyran-2-ylmethyl)-[1,2,4]triazolo[4,3-a]pyrazin-8-one]: the IC50 in assay [1] is greater than 100 µM; against human PDE4D, 57.7 µM; at human PDE6A/6B, 2.66 µM.
For the compound `Cc1c(C)n2c(C3(C4CC4)CC3)nnc2c(=O)n1CC1(C)CC1` [Example 15, 3-(1-Cyclopropylcyclopropyl)-5,6-dimethyl-7-[(1-methylcyclopropyl)methyl]-[1,2,4]triazolo[4,3-a]pyrazin-8-one], the IC50 in assay [1] was 9.6 µM; on human PDE4D, 14 ± 1.3 µM; at human PDE6A/6B, greater than 10 µM; at human PDE1A, 0.0031 ± 0.0011 µM; at human PDE1B, 0.0049 ± 0.0018 µM; at human PDE1C, 0.0014 ± 0.0003 µM.
`Cc1c(C)n2c(C3(C)CC3)nnc2c(=O)n1CC1CCCCO1` (single isomer, unassigned) [Example 14, 5,6-Dimethyl-3-(1-methylcyclopropyl)-7-(tetrahydropyran-2-ylmethyl)-[1,2,4]triazolo[4,3-a]pyrazin-8-one]: the IC50 in assay [1] is greater than 100 µM; on human PDE4D, 40.8 µM; at human PDE6A/6B, greater than 10 µM.
Regarding `CCCCCn1c(C)c(C)n2c(C3(C4CC4)CC3)nnc2c1=O` [Example 3, 3-(1-Cyclopropylcyclopropyl)-5,6-dimethyl-7-pentyl-[1,2,4]triazolo[4,3-a]pyrazin-8-one], the IC50 in assay [1] was greater than 100 µM; on human PDE4D, 14.3 µM; on human PDE6A/6B, greater than 10 µM; at human PDE1A, 0.011 ± 0.002 µM; on human PDE1B it was 0.00936 ± 0.00201 µM; at human PDE1C, 0.00126 ± 0.00061 µM.
Take `CCCCn1c(C)c(CC)n2c(C3(C4CC4)CC3)nnc2c1=O` [Example 16, 7-Butyl-3-(1-cyclopropylcyclopropyl)-5-ethyl-6-methyl-[1,2,4]triazolo[4,3-a]pyrazin-8-one]: the IC50 in assay [1] is greater than 100 µM; at human PDE4D, 22.3 µM; on human PDE6A/6B, greater than 10 µM; at human PDE1A, 0.00867 ± 0.00791 µM; at human PDE1B, 0.00654 ± 0.00261 µM; on human PDE1C, 0.0012 ± 0.00094 µM.
For the compound `Cc1c(C)n2c(C3(C4CC4)CC3)nnc2c(=O)n1CC1CCCCO1` (single isomer, unassigned) [Example 10], the 50% inhibitory concentration (IC50) in assay [1] is greater than 100 µM; at human PDE4D, 21.4 µM; on human PDE6A/6B it was greater than 10 µM; on human PDE1C, 0.002 ± 0.000311 µM.
In the case of `CCC1(c2nnc3c(=O)n(CC4CCCCO4)c(C)c(C)n23)CC1` (racemic) [Example 7, 3-(1-Ethylcyclopropyl)-5,6-dimethyl-7-(tetrahydropyran-2-ylmethyl)-[1,2,4]triazolo[4,3-a]pyrazin-8-one], the IC50 in assay [1] was greater than 100 µM; at human PDE4D it was 46.5 µM; at human PDE6A/6B, greater than 10 µM; on human PDE1C it was 0.00776 µM.
Consider `Cc1c(C)n2c(C3(C4CC4)CC3)nnc2c(=O)n1CC1CCCCO1` (racemic) [Example 6, 3-(1-cyclopropylcyclopropyl)-5,6-dimethyl-7-(tetrahydropyran-2-ylmethyl)-[1,2,4]triazolo[4,3-a]pyrazin-8-one], for which the half-maximal inhibitory concentration (IC50) is greater than 100 µM in assay [1], 30.9 µM on human PDE4D, greater than 10 µM at human PDE6A/6B and 0.00188 ± 0.00056 µM at human PDE1C.
For `CCC1(c2nnc3c(=O)n(CC4CCCCO4)c(C)c(C)n23)CC1` (single isomer, unassigned) [Example 12, 3-(1-Ethylcyclopropyl)-5,6-dimethyl-7-(tetrahydropyran-2-ylmethyl)-[1,2,4]triazolo[4,3-a]pyrazin-8-one], the IC50 in assay [1] was greater than 100 µM; against human PDE4D, 31 µM; at human PDE6A/6B, 7.62 µM; at human PDE1A, 0.0446 µM; on human PDE1C, 0.0132 µM.
Take `Cc1c(C)n2c(C3(C4CC4)CC3)nnc2c(=O)n1CC1CCC1` [Example 4, 7-(Cyclobutylmethyl)-3-(1-cyclopropylcyclopropyl)-5,6-dimethyl-[1,2,4]triazolo[4,3-a]pyrazin-8-one]: the IC50 was greater than 100 µM in assay [1]; 24 µM on human PDE4D; greater than 10 µM on human PDE6A/6B; 0.00371 ± 8e-05 µM at human PDE1A; 0.00365 ± 0.00188 µM on human PDE1B; 0.00106 ± 0.00024 µM on human PDE1C.
Consider `CCC1(c2nnc3c(=O)n(CC4CCCCO4)c(C)c(C)n23)CC1` (single isomer, unassigned) [Example 11, 3-(1-Ethylcyclopropyl)-5,6-dimethyl-7-(tetrahydropyran-2-ylmethyl)-[1,2,4]triazolo[4,3-a]pyrazin-8-one], for which the IC50 in assay [1] was greater than 100 µM; against human PDE4D, 67.2 µM; at human PDE6A/6B, greater than 10 µM; on human PDE1A, 0.0132 µM; at human PDE1C, 0.00477 ± 6e-05 µM.
As for `Cn1cc(Cc2cn3c(C4(C5CC5)CC4)nnc3c(=O)n2CC2CC2)cn1` [Example 1, 3-(1-Cyclopropylcyclopropyl)-7-(cyclopropylmethyl)-6-[(1-methylpyrazol-4-yl)methyl]-[1,2,4]triazolo[4,3-a]pyrazin-8-one], the IC50 in assay [1] was greater than 100 µM; against human PDE4D, 5.59 µM; at human PDE6A/6B, greater than 10 µM; at human PDE1A, 0.0203 ± 0.0005 µM; at human PDE1B it was 0.0294 ± 0.0116 µM; at human PDE1C, 0.012 ± 0.004 µM.

For orientation: IC50 means the concentration that inhibits the measured activity by half.
